# Source: patent US9546179B2, “Heterocycle amido alkyloxy substituted quinazoline derivative and use thereof” (priority 2011, dated 2017)
# Target: T1, receptor tyrosine kinase EGFR (Homo sapiens, UniProt P00533)
# T1 construct: purchased Shanghai 3bio Technology Co., Ltd. Lot No. 4018780925
# Test: Inhibitory effect on receptor tyrosine kinase EGFR (ELISA, Poly(Glu, Tyr)4:1, PY99 antibody)
# Format: biochemical
# Conditions: ATP 4 μM, 1 hour at 37° C.
# Experimental: Poly(Glu, Tyr)4:1 was diluted into 100 μg/ml by PBS without potassium. Enzyme label plate was coated with 37 μl/well at 37° C. overnight,
# The liquid in the wells was removed. The plate was rinsed by T-PBS for 5 minutes, and dried at 37° C. after repeated 3 times.
# The testing sample was diluted to the concentration concerned by reaction buffer solution, and added into the wells of the coated enzyme label plate. The concentration diluted should realize 1.0000 μg/ml, 0.1250 μg/ml, 0.0156 μg/ml, 0.00195 μg/ml and 0.00024 μg/ml in the 100 μl reaction.
# Adding in ATP solution (4 μM of final concentration) diluted by reaction buffer solution,
# Finally, the tyrosine kinase diluted by reaction buffer solution was added, and forming the reaction with 100 μl total volume.
# Meanwhile, negative control wells and enzyme-free control wells were prepared. The reaction was kept in the dark wet box for 1 hour at 37° C. The plate was rinsed by T-PBS for three times after the reaction ended, and blocked by 1% BSA […] for 30 min, and then, PY99 antibody (1:1000 diluted by 0.05% PBST with 1% BSA) was added in 100 μl/well. After incubated at 37° C. for 30 minutes, the plate was rinsed by T-PBS for three times, and the goat anti-mouse IgG marked with HRP (1 mg/ml 1:1000 diluted by 0.05% PBST with 1% BSA) was then added in 100 μl/well. After incubated at 37° C. for 30 minutes, the plate was rinsed by T-PBS for three times.
# Colorimetric solution OPD was added in 100 μl/well for 20 minutes' reaction in the dark side at the room temperature. Colorimetric substrate solution OPD was the solution of 0.1 mol/L citric acid-disodium hydrogen phosphate buffer (pH 5.0) with 20 mmol/L OPD and 12 mmol/L H2O2 (freshly prepared when using).
# 50 μl of 2M H2SO4 (2 mol/L sulfuric acid containing 0.1 mol/L sodium sulfate) was added in to terminate the reaction, and the A492 value was read with adjustable wavelength micro late enzyme-labeling instrument VERSAmax.
# The inhibition rate of samples is calculated by the following formula: […]
# T1 sequence (P00533 25-1210): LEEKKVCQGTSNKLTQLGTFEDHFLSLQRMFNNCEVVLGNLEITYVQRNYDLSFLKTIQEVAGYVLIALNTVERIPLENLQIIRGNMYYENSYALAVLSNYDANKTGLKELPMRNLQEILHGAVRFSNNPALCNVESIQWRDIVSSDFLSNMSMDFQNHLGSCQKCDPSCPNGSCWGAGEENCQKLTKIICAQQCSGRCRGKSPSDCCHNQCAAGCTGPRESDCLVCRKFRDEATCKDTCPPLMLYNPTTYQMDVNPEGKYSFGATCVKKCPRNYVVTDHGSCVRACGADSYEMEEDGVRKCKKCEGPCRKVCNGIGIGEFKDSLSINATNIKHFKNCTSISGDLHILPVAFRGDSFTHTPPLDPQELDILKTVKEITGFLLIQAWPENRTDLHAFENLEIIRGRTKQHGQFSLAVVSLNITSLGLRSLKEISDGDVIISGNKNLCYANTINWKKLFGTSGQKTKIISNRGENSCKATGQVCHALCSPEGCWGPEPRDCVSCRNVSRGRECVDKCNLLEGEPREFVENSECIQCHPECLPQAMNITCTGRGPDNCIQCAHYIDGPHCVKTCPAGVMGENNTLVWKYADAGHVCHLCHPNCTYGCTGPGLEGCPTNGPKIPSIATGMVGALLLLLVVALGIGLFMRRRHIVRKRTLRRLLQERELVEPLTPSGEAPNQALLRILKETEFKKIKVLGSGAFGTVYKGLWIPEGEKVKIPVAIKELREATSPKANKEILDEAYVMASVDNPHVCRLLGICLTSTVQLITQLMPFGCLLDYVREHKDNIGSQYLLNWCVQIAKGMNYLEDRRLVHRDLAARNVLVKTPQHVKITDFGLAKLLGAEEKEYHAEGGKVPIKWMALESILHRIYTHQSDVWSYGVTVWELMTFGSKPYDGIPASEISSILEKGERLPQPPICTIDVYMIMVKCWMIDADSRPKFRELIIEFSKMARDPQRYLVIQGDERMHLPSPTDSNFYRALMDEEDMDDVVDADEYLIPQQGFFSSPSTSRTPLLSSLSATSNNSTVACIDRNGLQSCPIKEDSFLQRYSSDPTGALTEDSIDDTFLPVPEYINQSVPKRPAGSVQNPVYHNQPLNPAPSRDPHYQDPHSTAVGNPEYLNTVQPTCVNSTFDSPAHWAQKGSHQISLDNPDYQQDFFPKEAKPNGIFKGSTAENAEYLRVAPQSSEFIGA
row,IC50,Structure (SMILES)
1,> 1000 nM,"COc1cc2ncnc(Nc3ccc(F)c(Cl)c3)c2cc1OCCCN1C[C@@H]2CN(C(=O)OC(C)(C)C)C[C@@H]2C1 [Example 88, 4-(3′-chloro-4′-fluorophenylamino)-6-[3-(5-tertbutyloxycarbonyl-hexahydropyrrolo[3,4-c]pyrrole-2-yl)-propoxy]-7-methoxyquinazoline]"
2,10 to 100 nM,"C#Cc1cccc(Nc2ncnc3cc(OC)c(OCCCN4CC5(COC5)C4)cc23)c1 [Example 38, 4-(3′-ethynylphenylamino)-6-[3-(2-oxa-6-azaspiro[3.3]heptane-6-yl)-propoxy]-7-methoxyquinazoline]"
3,> 1000 nM,COc1cc2ncnc(Nc3ccc(F)c(Cl)c3)c2cc1OCCN1CC[C@H]2OCC[C@H]21 (relative stereo) [Example 54]
4,10 to 100 nM,"COc1cc2ncnc(Nc3ccc(F)c(Cl)c3)c2cc1OCCCN1CCC2(CCN(C(C)=O)C2)C1 (stereo not drawn) [Example 92, 4-(3′-chloro-4′-fluorophenylamino)-6-[3-(7-acetyl-2,7-diazaspiro[4.4]-nonane-2-yl)-propoxy]-7-methoxyquinazoline]"
5,10 to 100 nM,COc1cc2ncnc(Nc3cc(Cl)ccc3F)c2cc1OCCCN1CCC2(COC2)C1 [Example 65]
6,0.1 to 10 nM,"COc1cc2ncnc(Nc3ccc(F)c(Cl)c3)c2cc1OCCCN1CCC2(CCNC2=O)C1 (stereo not drawn) [Example 80, 4-(3′-chloro-4′-fluorophenylamino)-6-[3-(2,7-diazaspiro[4.4]-nonane-1-ketone-7-yl)-propoxy]-7-methoxyquinazoline]"
7,10 to 100 nM,"C#Cc1cccc(Nc2ncnc3cc(OC)c(OCCCN4CCC5(COC5)C4)cc23)c1 [Example 75, 4-(3′-ethynylphenylamino)-6-[3-(2-oxa-6-azaspiro[3.4]octane-6-yl)-propoxy]-7-methoxyquinazoline]"
8,0.1 to 10 nM,"C#Cc1cccc(Nc2ncnc3cc(OC)c(OCCCN4CC[C@H]5OCC[C@H]54)cc23)c1 (relative stereo) [Example 50, 4-(3′-ethynylphenylamino)-6-[3-(cis-hexahydrofuro[3,2-b]pyrrole-4-yl)-propoxy]-7-methoxyquinazoline]"
9,10 to 100 nM,"COc1cc2ncnc(Nc3cc(Cl)ccc3F)c2cc1OCCCN1C2CCC1COC2 [Example 16, 4-(5′-chloro-2′-fluorophenylamino)-6-[3-(3-oxa-8-azabicyclo[3.2.1]octane-8-yl)-propoxy]-7-methoxyquinazolin]"
10,10 to 100 nM,"COc1cc2ncnc(Nc3ccc(F)c(Cl)c3)c2cc1OCCCN1CCC2(CCC(=O)N2)CC1 [Example 84, 4-(3′-chloro-4′-fluorophenylamino)-6-[3-(1,8-diazaspiro[4.5]decane-2-ketone-8-yl)-propoxy]-7-methoxyquinazoline]"
11,10 to 100 nM,"COc1cc2ncnc(Nc3cc(Cl)ccc3F)c2cc1OCCCN1CCC2(CCN(C)C2=O)C1 (stereo not drawn) [Example 23, 4-(5′-chloro-2′-fluorophenylamino)-6-[3-(2-methyl-2,7-diazaspiro[4.4]nonane-1-ketone-7-yl)-propoxy]-7-methoxyquinazoline]"
12,10 to 100 nM,"C#Cc1cccc(Nc2ncnc3cc(OC)c(OCCCN4CCC5(CC4)CC(=O)N(C)C5)cc23)c1 [Example 73, 4-(3′-ethynylphenylamino)-6-[3-(2-methyl-2,8-diazaspiro[4.5]decane-3-ketone-8-yl)-propoxy]-7-methoxyquinazoline]"

# Continued, molecule first:
row,Structure (SMILES),IC50
1,"COc1cc2ncnc(Nc3ccc(F)c(Cl)c3)c2cc1OCCCN1CCC2(C1)CN(C)C(=O)O2 (stereo not drawn) [Example 89, 4-(3′-chloro-4′-fluorophenylamino)-6-[3-[3-methyl-1-oxa-3,7-diazaspiro[4.4]nonane-2-ketone-7-yl)-propoxy]-7-methoxyquinazoline]",10 to 100 nM
2,"COc1cc2ncnc(Nc3ccc(F)c(Cl)c3)c2cc1OCCCN1CCC2(CCN(C)C2=O)C1 (stereo not drawn) [Example 81, 4-(3′-chloro-4′-fluorophenylamino)-6-[3-(2-methyl-2,7-diazaspiro[4.4]-nonane-1-ketone-7-yl)-propoxy]-7-methoxyquinazoline]",10 to 100 nM
3,"COc1cc2ncnc(Nc3cc(Cl)ccc3F)c2cc1OCCCN1CCC2(CCN(C)C2)C1 (stereo not drawn) [Example 64, 4-(5′-chloro-22′-fluorophenylamino)-6-[3-(7-methyl-2,7-diazaspiro[4.4]nonane-2-yl)-propoxy]-7-methoxyquinazoline]",10 to 100 nM
4,"COc1cc2ncnc(Nc3cc(Cl)ccc3F)c2cc1OCCCN1CCC2(CC1)CCN(C)C2=O [Example 26, 4-(5′-chloro-2′-fluorophenylamino)-6-[3-(2-methyl-2,8-diazaspiro[4.5]decane-1-ketone-8-yl)-propoxy]-7-methoxyquinazoline]",10 to 100 nM
5,"COc1cc2ncnc(Nc3cc(Cl)ccc3F)c2cc1OCCCN1CC2(COC2)C1 [Example 14, 4-(5′-chloro-2′-fluorophenylamino)-6-[3-(2-oxa-6-azaspiro[3.3]heptane-6-yl)-propoxy]-7-methoxyquinazoline]",0.1 to 10 nM
6,"COc1cc2ncnc(Nc3ccc(F)c(Cl)c3)c2cc1OCCCN1CCC2(CC1)CNC(=O)O2 [Example 87, 4-(3′-chloro-4′-fluorophenylamino)-6-[3-(1-oxa-3,8-diazaspiro[4.5]decane-2-ketone-8-yl)-propoxy]-7-methoxyquinazoline]",10 to 100 nM
7,"COc1cc2ncnc(Nc3ccc(F)c(Cl)c3)c2cc1OCCN1CC2(COC2)C1 [Example 62, 4-(3′-chloro-4′-fluorophenylamino)-6-[2-(2-oxa-6-azaspiro[3.3]heptane-6-yl)-oxethyl]-7-methoxyquinazoline]",100 to 1000 nM
8,"COc1cc2ncnc(Nc3cccc(Cl)c3F)c2cc1OCCCN1CC2(C1)CN(C)C(=O)O2 [Example 37, 4-(3′-chloro-2′-fluorophenylamino)-6-[3-(7-methyl-5-oxa-2,7-diazaspiro[3.4]octane-6-ketone-2-yl)-propoxy]-7-methoxyquinazoline]",0.1 to 10 nM
9,"[2H]C([2H])([2H])Oc1cc2ncnc(Nc3ccc(F)c(Cl)c3)c2cc1OCCCN1CCC2(CC1)CNC(=O)O2 [Example 95, 4-(3′-chloro-4′-fluorophenylamino)-6-[3-(1-oxa-3,8-diazaspiro[4.5]decane-2-ketone-8-yl)-propoxy]-7-deuterated methoxyquinazoline]",10 to 100 nM
10,"[2H]C([2H])([2H])Oc1cc2ncnc(Nc3ccc(F)c(Cl)c3)c2cc1OCCCN1CCC2(C1)CN(C)C(=O)O2 (stereo not drawn) [Example 96, 4-(3′-chloro-4′-fluorophenylamino)-6-[3-(3-methyl-1-oxa-3,7-diazaspiro[4.4]nonane-2-ketone-7-yl)-propoxy]-7-deuterated methoxyquinazoline]",10 to 100 nM
11,"COc1cc2ncnc(Nc3cc(Cl)ccc3F)c2cc1OCCCN1CCC2(CCNC2=O)C1 (stereo not drawn) [Example 22, 4-(5′-chloro-2′-fluorophenylamino)-6-[3-(2,7-diazaspiro[4.4]nonane-1-ketone-7-yl)-propoxy]-7-methoxyquinazoline]",10 to 100 nM
12,"COc1cc2ncnc(Nc3cc(Cl)ccc3F)c2cc1OCCCN1CCC2(CC1)CC(=O)N(C)C2 [Example 24, 4-(5′-chloro-2′-fluorophenylamino)-6-[3-(2-methyl-2,8-diazaspiro[4.5]decane-3-ketone-8-yl)-propoxy]-7-methoxyquinazoline]",10 to 100 nM
13,"C#Cc1cccc(Nc2ncnc3cc(OC)c(OCCCN4CCC5(CCN(C)C5=O)C4)cc23)c1 (stereo not drawn) [Example 71, 4-(3′-ethynylphenylamino)-6-[3-(2-methyl-2,7-diazaspiro[4.4]-nonane-1-ketone-7-yl)-propoxy]-7-methoxyquinazoline]",10 to 100 nM
14,"COc1cc2ncnc(Nc3ccc(F)c(Cl)c3)c2cc1OCCCN1CC2(C1)CN(C)C(=O)O2 [Example 91, 4-(3′-chloro-4′-fluorophenylamino)-6-[3-(7-methyl-5-oxa-2,7-diazaspiro[3.4]octane-6-ketone-2-yl)-propoxy]-7-methoxyquinazoline]",10 to 100 nM
15,COc1cc2ncnc(Nc3cc(Cl)ccc3F)c2cc1OCCCN1CC2(CNC(=O)C2)C1 [Example 27],10 to 100 nM
16,"COc1cc2ncnc(Nc3cc(Cl)ccc3F)c2cc1OCCCN1CCC2(CCC(=O)N2)CC1 [Example 25, 4-(5′-chloro-2′-fluorophenylamino)-6-[3-(1,8-diazaspiro[4.5]decane-2-ketone-8-yl)-propoxy]-7-methoxyquinazoline]",10 to 100 nM
17,"COc1cc2ncnc(Nc3ccc(F)c(Cl)c3)c2cc1OCCN1CCC2(CC1)CNC(=O)O2 [Example 58, 4-(3′-chloro-4′-fluorophenylamino)-6-[2-(1-oxa-3,8-diazaspiro[4.5]decane-2-ketone-8-yl)-oxethyl]-7-methoxyquinazoline]",100 to 1000 nM
18,"[2H]C([2H])([2H])Oc1cc2ncnc(Nc3ccc(F)c(Cl)c3)c2cc1OCCCN1CC2(CNC(=O)O2)C1 [Example 97, 4-(3′-chloro-4′-fluorophenylamino)-6-[3-(5-oxa-2,7-diazaspiro[3.4]octane-6-ketone-2-yl)-propoxy]-7-deuterated methoxyquinazoline]",100 to 1000 nM
